Laboratory results published in US6756382B2, “Amide substituted imidazoquinolines” (3M Innovative Properties Company, priority 1999, dated 2004).
Structures can show the parent of a compound that is named as a salt.

How the values were obtained:
[1] = test system: tumor necrosis factor (α); assay: Cytokine induction in human cells: tumor necrosis factor (α) secreted by PBMCs, ELISA; format: cell-based; details: PBMC, incubated 18 to 24 hours, TNF determined by ELISA, read-out: Lowest Effective Concentration (μM) Tumor Necrosis Factor
Excerpt: (§1) An in vitro human blood cell system was used to assess cytokine induction by compounds of the invention. Activity is based on the measurement of interferon and tumor necrosis factor (α) (IFN and TNF, respectively) secreted into culture media as described by Testerman et. al. In “Cytokine Induction by the Immunomodulators Imiquimod and S-27609”, Journal of Leukocyte Biology, 58, 365-372 (September, 1995).
(§2) Whole blood is collected by venipuncture into EDTA vacutainer tubes from healthy human donors. Peripheral blood mononuclear cells (PBMCs) are separated from whole blood by density gradient centrifugation using Histopaque®-1077 (Sigma Chemicals, St. Louis, Mo.). The PBMCs are suspended at 3-4×10^6 cells/mL in RPMI 1640 medium containing 10% fetal bovine serum, 2 mM L-glutamine and 1% penicillin/streptomycin solution (RPMI complete). The PBMC suspension is added to 48 well flat bottom sterile tissue culture plates (Costar, Cambridge, Mass. or Becton Dickinson Labware, Lincoln Park, N.J.) containing an equal volume of RPMI complete media containing test compound.
(§3) The compounds are solubilized in dimethyl sulfoxide (DMSO). The DMSO concentration should not exceed a final concentration of 1% for addition to the culture wells.
(§4) The solution of test compound is added at 60 μM to the first well containing RPMI complete and serial (three fold or ten fold) dilutions are made. The PBMC suspension is then added to the wells in an equal volume, bringing the test compound concentrations to the desired range. The final concentration of PBMC suspension is 1.5-2×10^6 cells/mL. The plates are covered with sterile plastic lids, mixed gently and then incubated for 18 to 24 hours at 37° C. in a 5% carbon dioxide atmosphere.
(§5) Following incubation the plates are centrifuged for 5-10 minutes at 1000 rpm (˜200×g) at 4° C. The cell culture supernatant is removed with a sterile polypropylene pipet and transferred to sterile polypropylene tubes. Samples are maintained at −30 to −70° C. until analysis. The samples are analyzed for interferon (α) by either ELISA or bioassay and for tumor necrosis factor (α) by ELISA.
Tumor necrosis factor (α) (TNF)concentration is determined using ELISA kits available from Genzyme, Cambridge, Mass.; R&D Systems, Minneapolis, Minn.; or Pharmingen, San Diego, Calif.
(§6) The table below lists the lowest concentration found to induce interferon and the lowest concentration found to induce tumor necrosis factor for each compound. […] Unless otherwise indicated, the interferon biosynthesis was determined by ELISA.

interferon (α) = assay: Cytokine induction in human cells: interferon secreted by PBMCs, ELISA; format: cell-based; details: PBMC, incubated 18 to 24 hours, interferon determined by ELISA, read-out: Lowest Effective Concentration (μM) Interferon
Excerpt: as §1, §2, §3, §4, §5
Interferon (α) concentration is determined by ELISA using a Human Multi-Species kit from PBL Biomedical Laboratories, New Brunswick, N.J.
as §6

Structure (SMILES) | minimal effective concentration [1] [µM] | minimal effective concentration (interferon (α)) [µM]
COc1cccc(CN(CCCCn2cnc3c(N)nc4ccccc4c32)C(C)=O)c1OC [Example 131] | > 30 | 3.33
CCc1nc2c(N)nc3ccccc3c2n1CCCCNC(=O)c1ccccc1 [Example 5, N^1-[4-(4-Amino-2-ethyl-1H-imidazo[4,5-c]quinolin-1-yl)butyl]benzamide] | 0.37 | 0.04
Nc1nc2ccccc2c2c1ncn2CCCNC(=O)c1ccccc1 [Example 11, N^1-[3-(4-Amino-1H-imidazo[4,5-c]quinolin-1-yl)propyl]benzamide Hydrochloride] | > 30 | 1.11
Nc1nc2ccccc2c2c1ncn2CCCCNC(=O)c1ccc(OC(F)(F)F)cc1 [Example 102] | > 30 | 3.33
Nc1nc2ccccc2c2c1ncn2CCCCNC(=O)c1ccc([N+](=O)[O-])o1 [Example 96] | 10 | 0.37
COCCc1nc2c(N)nc3ccccc3c2n1CCCCNC(=O)C1CCCN1S(=O)(=O)c1ccc(C(C)(C)C)cc1 (stereo in doubt) [Example 185, N-{4-[4-amino-2-(2-methoxyethyl)-1H-imidazo[4,5-c]quinolin-1-yl]butyl}-1-[(4-tert-butylphenyl)sulfonyl]-L-prolinamide] | 3.33 | 1.11
COCCc1nc2c(N)nc3ccccc3c2n1CCCCNC(=O)C1CCCCC1 [Example 150] | 0.1 | 0.001
CCCCc1nc2c(N)nc3ccccc3c2n1CCCNC(=O)c1cc2ccccc2cn1 [Example 188, N-[3-(4-amino-2-butyl-1H-imidazo[4,5-c]quinolin-1-yl)propyl]isoquinoline-3-carboxamide] | 1.11 | 0.37
Nc1nc2ccccc2c2c1ncn2CCCCNC(=O)c1ccc(CN2CCOCC2)cc1 [Example 103] | 10 | 0.37
Nc1nc2ccccc2c2c1ncn2CCCCCNC(=O)c1ccccc1 [Example 10, N^1-[5-(4-Amino-1H-imidazo[4,5-c]quinolin-1-yl)pentyl]benzamide Hydrochloride] | > 30 | 3.33
CC(=O)N(CCCCn1cnc2c(N)nc3ccccc3c21)Cc1ccccc1Sc1ccc(Cl)cc1 [Example 127] | > 30 | > 30
C=CCCC(=O)NCCCCn1cnc2c(N)nc3ccccc3c21 [Example 116] | 10 | 0.37
COCCc1nc2c(N)nc3ccccc3c2n1CCCCNC(=O)C1CCCC1 [Example 149] | 1 | 0.001
Nc1nc2ccccc2c2c1ncn2CCCCNC(=O)c1cccnc1Cl [Example 97] | 3.33 | 0.12
CC(=O)N(CCCCn1cnc2c(N)nc3ccccc3c21)Cc1ccc(Br)cc1 [Example 121] | > 30 | 1.11
CC(=O)N(CCCCn1cnc2c(N)nc3ccccc3c21)Cc1ccccc1C [Example 144] | > 30 | 1.11
Nc1nc2ccccc2c2c1ncn2CCCCNC(=O)c1ccco1 [Example 85] | 10 | 1.11
C#CCCC(=O)NCCCCn1cnc2c(N)nc3ccccc3c21 [Example 115] | 30 | 1.11
CC(=O)N(CCCCn1cnc2c(N)nc3ccccc3c21)Cc1ccccc1Cl [Example 124] | 3.33 | 1.11

Structure (SMILES) | minimal effective concentration [1] [µM] | minimal effective concentration (interferon (α)) [µM]
COc1cc(C(=O)NCCCCn2cnc3c(N)nc4ccccc4c32)cc(OC)c1OC [Example 93] | 30 | 1.11
COCCc1nc2c(N)nc3ccccc3c2n1CCCCNC(=O)[C@H]1CC(=O)N(C)[C@@H]1c1cccnc1 [Example 184, (2S,3S)-N-{4-[4-amino-2-(2-methoxyethyl)-1H-imidazo[4,5-c]quinolin-1-yl]butyl}-1-methyl-5-oxo-2-pyridin-3-ylpyrrolidine-3-carboxamide] | 1.11 | 0.12
Nc1nc2ccccc2c2c1ncn2CCCCNC(=O)c1ccc(CN2CCN(C(c3ccccc3)c3ccccc3)CC2)cc1 [Example 104] | > 30 | > 30
COCCc1nc2c(N)nc3c(c2n1CCCCNC(=O)c1ccncc1)CCCC3 [Example 173] | 1 | 0.001
Nc1nc2ccccc2c2c1ncn2CCCCNC(=O)CC1C=CCC1 (stereo not shown) [Example 110] | 3.33 | 1.11
Nc1nc2ccccc2c2c1ncn2CCCCNC(=O)CC1CCCC1 [Example 99] | 3.33 | 0.37
CC(=O)N(CCCCn1cnc2c(N)nc3ccccc3c21)Cc1cc(Br)ccc1O [Example 122] | > 30 | 3.33
CC(=O)N(CCCCn1cnc2c(N)nc3ccccc3c21)Cc1cc(Cl)ccc1[N+](=O)[O-] [Example 126] | > 30 | 3.33
CC(=O)N(CCCCn1cnc2c(N)nc3ccccc3c21)Cc1ccc(F)c(F)c1 [Example 129] | > 30 | 3.33
COCCc1nc2c(N)nc3ccccc3c2n1CCCCNC(=O)c1cccc2ccccc12 [Example 154] | > 10 | 0.0001
COCCc1nc2c(N)nc3ccccc3c2n1CCCCNC(=O)C=C(C)C [Example 148] | 1 | 0.01
CC(=O)N(CCCCn1cnc2c(N)nc3ccccc3c21)Cc1ccco1 [Example 134] | > 30 | 0.37
CC(=O)N(CCCCn1cnc2c(N)nc3ccccc3c21)Cc1cc([N+](=O)[O-])ccc1Cl [Example 125] | > 30 | 1.11
COC(=O)CCC(=O)NCCCCn1cnc2c(N)nc3ccccc3c21 [Example 113] | > 30 | 3.33
CC(=O)N(CCCCn1cnc2c(N)nc3ccccc3c21)Cc1ccc([N+](=O)[O-])cc1 [Example 140] | > 30 | 1.11
COc1ccc2ccccc2c1CN(CCCCn1cnc2c(N)nc3ccccc3c21)C(C)=O [Example 139] | > 30 | > 30
C#CCCCCCCCCC(=O)NCCCCn1cnc2c(N)nc3ccccc3c21 [Example 119] | > 30 | > 30
Nc1nc2ccccc2c2c1ncn2CCCCNC(=O)c1cc(Cl)cc(Cl)c1 [Example 111] | > 30 | 1.11
CC(=O)NCCCCn1cnc2c(N)nc3ccccc3c21 [Example 88] | > 30 | 10
